Where a name gives a salt, the structure may show the parent alone. Read-outs that look alike come from different tables or passages of the source.
Tests used:
[1] = system: MCP1; test: inhibition of TNF-induced MCP1; assay type: cell-based; conditions: @ 10 uM concentration; read-out: TNF-induced MCP1, In-vitro % of inhibition
Experimental: The activity of the compounds of the present invention in inhibiting glycated protein- and AGE-induced inflammation can be determined using the assays described herein and in U.S. patent application Ser. No. 10/026,335, which is herein incorporated in its entirety. Such assays comprise measurement of the specific activity of biological components involved in a known cellular response. The assays provide a measurable response in which the activity of the compounds is determined. One assay comprises measurement of the effects of compounds on an inflammatory response by cells to the presence of a stimulating agent. Yet another assay comprises endothelial cells that are stimulated by the addition of a glycated protein, the stimulating agent. The endothelial cells respond by producing specific cytokines. The amount of cytokines produced are determined by measurement protocols known to those skilled in the art. The compounds of the present invention are then added to the assay and the production of cytokines is measured. From the comparison of the assay without the compound with the assay with the compound, the biological effect of the compound can be determined. The compound may have an inhibitory effect, a stimulatory effect, or no effect at all.
The amount and type of cytokine produced can be determined using immunological methods, such as ELISA assays. The methods of the present invention are not limited by the type of assay used to measure the amount of cytokine produced, and any methods known to those skilled in the art and later developed can be used to measure the amount of cytokines produced in response to the stimulating agent and to the compound having unknown activity.
Assays for determining the activity of compounds capable of modulating inflammation include those taught in U.S. patent application Ser. No. 10/026,335 and 09/969,013, which are both expressly incorporated by reference. In general, once the baseline response to the stimulating agent for the production of cytokines by the endothelial cells is established, thus comprising the control levels for the screening assay, the methods comprise addition of compounds of the present invention. The effect of the compound on the baseline response is determined by comparing the amount of cytokine produced in the presence of the stimulating agent and the amount of cytokine produced in the presence of the stimulating agent and the compound of the present invention. In a preferred method, compounds that have inhibitory effects on the inflammation of the cells in the presence of glycated albumin are then used as therapeutic agents. One or more compounds may be added to the screening assay. Combinations or mixtures of compounds can be added. Different amounts and formulations of the compounds are added to determine the effects on the screening assay. The screening assay may also be used to determine stimulatory compounds or compounds that have no effects in the assay.

[2] = system: smooth muscle cells (SMC); test: anti-proliferation assay (perlecan); assay type: cell-based
Summary of the method: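 Compounds are added to smooth muscle cells in growth or serum-free medium. The change in proliferation is measured, e.g. by labelled-nucleotide incorporation into DNA, against untreated cells; IC50 values are given as activity bins.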

[3] = anti-proliferation assay (perlecan), class of IC50, read-out: Activity (note 1)
[4] = anti-proliferation assay (perlecan), some cells print no unit, read-out: Avg IC-50

COc1ccc(Nc2nc(NC3CCCCCC3)nc(OCc3cccc(C)n3)n2)cc1Cl
inhibition at 10 µM [1]: 48%

COc1ccc(Nc2nc(NC3CCCCCC3)nc(-c3cc(O)ccc3O)n2)cc1Cl
inhibition at 10 µM [1]: 100%

COc1ccc(Nc2nc(NC3CCCCCC3)nc(Oc3ccc(C#CC(C)(C)O)cc3)n2)cc1Cl
melting point: 132 to 134 °C

Cc1ccc(Nc2nc(NC3CCCCCC3)nc(N(C)C3CCN(C)CC3)n2)cc1F
melting point: 93 °C

CN1CCC(N(C)c2nc(Nc3cccc(F)c3)nc(NC3CCCCCC3)n2)CC1
melting point: 86 °C

CCN1CCCC1CNc1nc(Nc2ccc(OCc3ccccc3)c(Cl)c2)nc(NC2CCCCCC2)n1 (stereo not shown)
melting point: 64 °C

COc1ccc(Nc2nc(NNC(=O)CCCCC3SCC4NC(=O)NC43)nc(NC3CCCCCC3)n2)cc1Cl (stereo not shown)
melting point: 154 °C

COc1ccc(Nc2nc(NC3CCCCCC3)nc(Oc3ccccc3I)n2)cc1Cl [Example 10, N^2-(3-chloro-4-methoxyphenyl)-N-4-cycloheptyl-6-(2-iodophenoxy)-1,3,5-triazine-4,2-diamine]
melting point: 206 to 208 °C

COc1ccc(Nc2nc(NC3CCCCCC3)nc(Oc3ccccc3C#CC(C)(C)O)n2)cc1Cl [Example 12, 4-{2-[4-(3-chloro-4-methoxyanilino)-6-cycloheptylamino-1,3,5-triazine-2-yl-oxy]-phenyl}-2-methyl-3-butyn-2-ol]
melting point: 150 to 158 °C

COc1ccc(Nc2nc(NC3CCCCCC3)nc(Oc3ccc(C=O)cc3)n2)cc1Cl [Example 15, 4-[4-(3-chloro-4-methoxyanilino)-6-cycloheptylamino-1,3,5-triazine-2-yl-oxy]-benzaldehyde]
melting point: 218 to 220 °C

COc1ccc(Nc2nc(NC3CCCCCC3)nc(Oc3ccc(C(C)=O)cc3Cl)n2)cc1Cl [Example 19, 1-{3-chloro-4-[4-(3-chloro-4-methoxyphenylamino)-6-cycloheptylamino-[1,3,5]triazine-2-yloxy]phenyl}ethanone]
melting point: 186 to 196 °C

COc1ccc(Nc2nc(NC3CCCCCC3)nc(OCC3CCCO3)n2)cc1Cl (stereo not shown) [Example 30, N-(3-Chloro-4-methoxy-phenyl)-N′-cycloheptyl-6-(tetrahydro-furan-2-ylmethoxy)-[1,3,5]triazine-2,4-diamine]
melting point: 61 °C

CCN1CCCC1CNc1nc(NC2CCCCCC2)nc(NC2CCC(O)CC2)n1 (stereo not shown) [Example 31, 4-{4-Cycloheptylamino-6-[(1-ethyl-pyrrolidin-2-ylmethyl)-amino]-[1,3,5]triazin-2-ylamino}-cyclohexanol]
melting point: 92 °C

COc1ccc(Nc2nc(NCCN)nc(NC3CCCCCC3)n2)cc1Cl [drawing 589, N-(2-Amino-ethyl)-N′-(3-Chloro-4-meth-oxy-phenyl)-N″-cyclo-heptyl-[1,3,5]triazine-2,4,6-triamine]
IC50 [2, 3]: < 3 µM
IC50 [2, 4]: 1 µM

CCN1CCCC1CNc1nc(Nc2ccc(C)c(F)c2)nc(NC2CCCCCC2)n1 (stereo not shown) [drawing 591, N-Cycloheptyl-N′-(1-ethyl-pyr-rolidin-2-ylmethyl)-N″-(3-fluoro--4-methyl-phenyl)-[1,3,5]tri-azine-2,4,6-triamine]
IC50 [2, 3]: < 3 µM
IC50 [2, 4]: 2.78 µM

Cc1ccc(Nc2nc(NC3CCCCCC3)nc(N(C)C3CCN(C)CC3)n2)cc1F [drawing 592, N-Cycloheptyl-N′-(3-fluoro-4-meth-yl-phenyl)-N″-methyl-N″-(1-meth-yl-piperidin-4-yl)-[1,3,5]tri-azine-2,4,6-triamine]
IC50 [2, 3]: < 3 µM
IC50 [2, 4]: 2.25 µM

CN1CCC(N(C)c2nc(Nc3cccc([N+](=O)[O-])c3)nc(NC3CCCCCC3)n2)CC1 [drawing 593, N-Cycloheptyl-N′-methyl-N′-(1-meth-yl-piperidin-4-yl)-N″-(3-ni-tro-phenyl)-[1,3,5]triazine-2,4,6-tri-amine]
IC50 [2, 3]: < 3 µM
IC50 [2, 4]: 0.91 µM

COc1ccc(Nc2nc(NCCCCCNC(=O)CCCCC3SCC4NC(=O)NC43)nc(NC3CCCCCC3)n2)cc1Cl (stereo not shown) [drawing 594, 5-(2-Oxo-hexahydro-thieno[3,4-d]imi-dazol-4-yl)-pentanoic acid {5-[4-(3-chloro-4-methoxy-phenyl-amino)-6-cyclo-heptylamino-[1,3,5]triazin-2-yl-amino]-pentyl}-amide]
IC50 ([2]; read-out: Activity (note 1)): < 3 µM
IC50 ([2]; read-out: Avg IC-50): 2.2 µM

COc1ccc(Nc2nc(NC3CCCCCC3)nc(NC3CCN(C(=O)CCCCC4SCC5NC(=O)NC54)CC3)n2)cc1Cl (stereo not shown) [drawing 595]
IC50 ([2]; read-out: Activity (note 1)): < 3 µM
IC50 ([2]; read-out: Avg IC-50): 0.71 µM

COc1ccc(Nc2nc(NNC(=O)CCCCC3SCC4NC(=O)NC43)nc(NC3CCCCCC3)n2)cc1Cl (stereo not shown) [drawing 596, 5-(2-Oxo-hexahydro-thieno[3,4-d]imi-dazol-4-yl)-pentanoic acidN′-[4-(3-chloro-4-methoxy-phenyl-amino)-6-cyclo-heptylamino-[1,3,5]triazine-2-yl]-hy-drazide]
IC50 ([2]; read-out: Activity (note 1)): 3 to 7 µM
IC50 ([2]; read-out: Avg IC-50): 5 µM

COc1ccc(Nc2nc(NCCNC(=O)CCCCC3SCC4NC(=O)NC43)nc(NC3CCCCCC3)n2)cc1Cl (stereo not shown) [drawing 597, of 5-(2-Oxo-hexahydro-thi-eno[3,4-d]imidazol-4-yl)-pen-tanoic acid {2,-[4-(3-chloro-4-meth-oxy-phenylamino)-6-cyclo-heptylamino-[1,3,5]triazin-2-yl-amino]-ethyl}-amide]
IC50 [2, 3]: 3 to 7 µM
IC50 [2, 4]: 3.2 µM

CN1CCC(N(C)c2nc(Nc3cccc(F)c3)nc(NC3CCCCCC3)n2)CC1 [drawing 598, N-Cycloheptyl-N′-(3-fluoro-phe-nyl)-N″-methyl-N″-(1-methyl-piper-idin-4-yl)-[1,3,5]triazine-2,4,6-tri-amine]
IC50 [2, 3]: < 3 µM
IC50 [2, 4]: 1.23 µM

CCN1CCCC1CNc1nc(NC2CCCCCC2)nc(NC2CCC(O)CC2)n1 (stereo not shown) [drawing 599, 4-{4-Cycloheptylamino-6-[(1-eth-yl-pyrrolidin-2-ylmethyl)-amino]-[1,3,5]triazin-2-ylamino}-cyclo-hexanol]
IC50 [2, 3]: 3 to 7 µM
IC50 [2, 4]: 4.1 µM

CCN1CCCC1CNc1nc(Nc2ccc(OC)c(F)c2)nc(N2CCN(CC(=O)N3CCCC3)CC2)n1 (stereo not shown) [drawing 600, 2-{4-[4-[(1-Ethyl-pyrrolidin-2-yl-methyl)-amino]-6-(3-fluoro-4-meth-oxy-phenylamino)-[1,3,5tri-azin-2-yl]-piperazin-1-yl}-1-pyr-rolidin-1-yl-ethanonedihydrogen chloride salt]
inhibition at 20 µM ([2]; read-out: inhibition at 20 μM (printed in the Avg IC-50 column)): 42%

CCOc1nc(Nc2ccc(OC)c(F)c2)nc(NC2CCCCCC2)n1 [drawing 601, N-Cycloheptyl-6-ethoxy-N′-(3-fluoro--4-methoxy-phenyl)-[1,3,5]tri-azine-2,4-diamine]
IC50 [2, 3]: 3 to 7 µM
IC50 [2, 4]: 4.5 µM

CCc1occc(=O)c1Oc1nc(Nc2ccc(OC)c(Cl)c2)nc(NC2CCCCCC2)n1 [drawing 616]
inhibition at 10 µM [1]: 48%

COc1ccc(Nc2nc(NC3CCCCCC3)nc(Oc3ccccc3F)n2)cc1Cl [drawing 618]
inhibition at 10 µM [1]: 10%

COc1ccc(Nc2nc(NC3CCCCCC3)nc(Oc3ccc(C(C)=O)cc3)n2)cc1Cl [drawing 624]
inhibition at 10 µM [1]: 25%

COc1ccc(Nc2nc(NC3CCCCCC3)nc(Oc3ccc(/C=N\O)cc3)n2)cc1Cl [drawing 625]
inhibition at 10 µM [1]: 100%

COc1ccc(Nc2nc(NC3CCCCCC3)nc(Oc3ccc(C(C)=O)cc3Cl)n2)cc1Cl [drawing 626]
inhibition at 10 µM [1]: 82%

COc1ccc(Nc2nc(NC3CCCCCC3)nc(Sc3ccccc3)n2)cc1Cl [drawing 628]
inhibition at 10 µM [1]: 10%

COc1ccc(Nc2nc(NC3CCCCCC3)nc(Sc3ccc(F)cc3)n2)cc1Cl [drawing 630]
inhibition at 10 µM [1]: 15%

COc1cc(OC)c(-c2nc(Nc3ccc(OC)c(Cl)c3)nc(NC3CCCCCC3)n2)c(OC)c1 [drawing 632]
inhibition at 10 µM [1]: 10%

COc1ccc(Nc2nc(NC3CCCCCC3)nc(-c3c(O)ccc4ccccc34)n2)cc1Cl [drawing 634]
inhibition at 10 µM [1]: 100%

COc1ccc(Nc2nc(NCCNC(=O)OC(C)(C)C)nc(NC3CCCCCC3)n2)cc1Cl [{2-[4-(3-Chloro-4-methoxy-phenylamino)-6-cycloheptylamino-[1,3,5]triazin-2-ylamino]-ethyl}-carbamic acid tert-butyl ester]
activity in anti-proliferation assay (Perlecan), in words ([2]; using the same activity scale used in Table 3): high activity
